Calls of active or inactive are those of the source. The calls are words filed in the database; no cut-off is given here.
Assays:
Bacteria [1] = assay: Inhibition of recombinant serine beta lactamase OXA-48 (unknown origin) expressed in Escherichia coli BL21 (DE3) cells using meropenem as substrate at 20 uM by spectrometric analysis relative to control
[2] = Inhibition of recombinant serine beta lactamase OXA-48 (unknown origin) expressed in Escherichia coli BL21 (DE3) cells using meropenem as substrate by spectrometric analysis; set-up: species or system Bacteria
[3] = molecular target: Metallo-beta-lactamase type 2 (Bacteria, UniProt C7C422); assay: Non-competitive inhibition of recombinant NDM-1 (unknown origin) expressed in Escherichia coli BL21 (DE3) cells using meropenem as substrate assessed as inhibition constant by Lineweaver-Burk plot analysis
Chain of Metallo-beta-lactamase type 2 (C7C422 whole entry): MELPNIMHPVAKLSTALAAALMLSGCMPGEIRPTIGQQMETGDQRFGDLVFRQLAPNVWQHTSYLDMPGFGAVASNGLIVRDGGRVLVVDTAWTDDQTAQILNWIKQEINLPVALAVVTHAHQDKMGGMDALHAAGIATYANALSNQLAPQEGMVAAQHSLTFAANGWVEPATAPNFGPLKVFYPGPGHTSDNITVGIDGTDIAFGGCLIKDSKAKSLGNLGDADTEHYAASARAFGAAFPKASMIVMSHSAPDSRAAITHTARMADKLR

[4] = Non-competitive inhibition of recombinant serine beta lactamase KPC-2 (unknown origin) expressed in Escherichia coli BL21 (DE3) cells using meropenem as substrate assessed as inhibition constant by Lineweaver-Burk plot analysis; set-up: species or system Bacteria
Bacteria [5] = assay: Inhibition of recombinant serine beta lactamase KPC-2 (unknown origin) expressed in Escherichia coli BL21 (DE3) cells assessed as reduction in residual activity incubated for 360 min; settings: dose 0.25-5 µM
Bacteria [6] = assay: Inhibition of recombinant metallo-beta-lactamase IMP-1 (unknown origin) expressed in Escherichia coli BL21 (DE3) cells using cefazolin as substrate assessed as reduction in residual activity; settings: dose 0.075-20 µM
Bacteria [7] = assay: Inhibition of recombinant serine beta lactamase OXA-48 (unknown origin) expressed in Escherichia coli BL21 (DE3) cells assessed as reduction in residual activity incubated for 120 min; settings: dose 0.3-5 µM
Bacteria [8] = assay: Inhibition of recombinant serine beta lactamase OXA-48 (unknown origin) expressed in Escherichia coli BL21 (DE3) cells assessed as reduction in residual activity at 0.3 to 5 uM; settings: dose 0.3-5 µM, time 120.0 min, TDE = time-dependent effect
Bacteria [9] = assay: Inhibition of recombinant serine beta lactamase KPC-2 (unknown origin) expressed in Escherichia coli BL21 (DE3) cells using cefazolin as substrate assessed as reduction in residual activity; settings: dose 0.075-20 µM
Bacteria [10] = assay: Inhibition of recombinant serine beta lactamase OXA-48 (unknown origin) expressed in Escherichia coli BL21 (DE3) cells using cefazolin as substrate assessed as reduction in residual activity; settings: dose 0.075-20 µM
[11] = molecular target: Metallo-beta-lactamase type 2 (Bacteria) (UniProt C7C422); assay: Inhibition of recombinant NDM-1 (unknown origin) expressed in Escherichia coli BL21 (DE3) cells using meropenem as substrate assessed as residual activity at 20 uM relative to control
Chain of Metallo-beta-lactamase type 2 (Bacteria) (C7C422 whole entry): as above

[12] = molecular target: Metallo-beta-lactamase type 2 (Bacteria) (UniProt C7C422); assay: Irreversible inhibition of recombinant NDM-1 (unknown origin) expressed in Escherichia coli BL21 (DE3) cells using meropenem as substrate assessed as reduction in residual activity at 5 uM preincubated for 6 hrs followed by dialysis and measured after 24 hrs
Bacteria [13] = assay: Irreversible inhibition of recombinant metallo-beta-lactamase IMP-1 (unknown origin) expressed in Escherichia coli BL21 (DE3) cells using cefazolin as substrate assessed as reduction in residual activity at 5 uM preincubated for 6 hrs followed by dialysis and measured after 24 hrs
Bacteria [14] = assay: Irreversible inhibition of recombinant serine beta lactamase KPC-2 (unknown origin) expressed in Escherichia coli BL21 (DE3) cells using cefazolin as substrate assessed as reduction in residual activity at 5 uM preincubated for 6 hrs followed by dialysis and measured after 24 hrs
Bacteria [15] = assay: (§1) Destabilization of recombinant serine beta lactamase KPC-2 (unknown origin) expressed in Escherichia coli BL21 (DE3) cells assessed as thermal stabilization by measuring melting temperature at 50 uM incubated under 25 to 80 degreeC by SYPRO orange dye based thermal shift assay (reference value: 55.4 degreeC)
Bacteria [16] = assay: as §1, with “OXA-48” for “KPC-2”, “54.6” for “55.4”
Escherichia coli [17] = assay: Synergistic antibacterial activity against Escherichia coli BL21 (DE3) harboring serine beta lactamase OXA-48 assessed as meropenem MIC at 64 microg/ml measured after 16 hrs by CLSI protocol based broth microdilution method (reference value: 1 microg/ml); format: functional; settings: dose 64 µg/ml
Escherichia coli [18] = assay: Synergistic antibacterial activity against Escherichia coli clinical isolate 07 assessed as meropenem MIC at 64 microg/ml measured after 16 hrs by CLSI protocol based broth microdilution method (reference value: 128 microg/ml); format: functional; settings: dose 64 µg/ml
Escherichia coli [19] = assay: Synergistic antibacterial activity against Escherichia coli clinical isolate 08 assessed as meropenem MIC at 64 microg/ml measured after 16 hrs by CLSI protocol based broth microdilution method (reference value: 128 microg/ml); format: functional; settings: dose 64 µg/ml
Escherichia coli [20] = assay: Synergistic antibacterial activity against Escherichia coli clinical isolate 04 assessed as fold decrease in meropenem MIC at 64 microg/ml measured after 16 hrs by CLSI protocol based broth microdilution method; format: functional; settings: dose 64 µg/ml
Escherichia coli [21] = assay: Synergistic antibacterial activity against Escherichia coli clinical isolate 08 assessed as fold decrease in meropenem MIC at 64 microg/ml measured after 16 hrs by CLSI protocol based broth microdilution method; format: functional; settings: dose 64 µg/ml
Escherichia coli [22] = assay: Synergistic antibacterial activity against Escherichia coli clinical isolate 24 assessed as fold decrease in meropenem MIC at 64 microg/ml measured after 16 hrs by CLSI protocol based broth microdilution method; format: functional; settings: dose 64 µg/ml
Escherichia coli [23] = assay: Synergistic antibacterial activity against Escherichia coli BL21 (DE3) harboring metallo-beta-lactamase IMP-1 assessed as decrease in bacterial colony at 128 microg/ml incubated for 12 hrs in presence of meropenem by imaging analysis; format: functional, organism-based; settings: dose 128.0 µg/ml
Escherichia coli [24] = assay: Synergistic antibacterial activity against Escherichia coli BL21 (DE3) harboring serine beta lactamase KPC-2 assessed as decrease in bacterial colony at 128 microg/ml incubated for 12 hrs in presence of meropenem by imaging analysis; format: functional, organism-based; settings: dose 128.0 µg/ml
Escherichia coli [25] = assay: Antibacterial activity against Escherichia coli BL21 (DE3) harboring NDM-1 assessed as inhibition of bacterial growth upto 512 microg/ml by microdilution checkerboard assay; format: functional, organism-based; settings: dose <= 512.0 µg/ml
Escherichia coli [26] = assay: Antibacterial activity against Escherichia coli BL21 (DE3) harboring serine beta lactamase OXA-48 assessed as inhibition of bacterial growth upto 512 microg/ml by microdilution checkerboard assay; format: functional, organism-based; settings: dose <= 512.0 µg/ml
Escherichia coli [27] = assay: Synergistic antibacterial activity against Escherichia coli BL21 (DE3) harboring NDM-1 assessed as reduction in meropenem MIC upto 256 microg/ml in presence of meropenem by microdilution checkerboard assay; format: functional, organism-based; settings: dose <= 256.0 µg/ml
Escherichia coli [28] = assay: Synergistic antibacterial activity against Escherichia coli BL21 (DE3) harboring metallo-beta-lactamase IMP-1 assessed as reduction in meropenem MIC upto 256 microg/ml in presence of meropenem by microdilution checkerboard assay; format: functional, organism-based; settings: dose <= 256.0 µg/ml
Escherichia coli [29] = assay: Synergistic antibacterial activity against Escherichia coli BL21 (DE3) harboring serine beta lactamase OXA-48 assessed as reduction in meropenem MIC upto 256 microg/ml in presence of meropenem by microdilution checkerboard assay; format: functional, organism-based; settings: dose <= 256.0 µg/ml
Escherichia coli [30] = assay: Synergistic antibacterial activity against Escherichia coli harboring NDM-1 infected in Kunming mouse model assessed as reduction in bacterial load in spleen at 20 mg/kg, ip co-administered with 10 mg/kg of meropenem; format: functional, organism-based
Escherichia coli [31] = assay: Antibacterial activity against Escherichia coli harboring NDM-1 infected in Kunming mouse model assessed as reduction in bacterial load in spleen at 20 mg/kg, ip; format: functional, organism-based

With `O=C(CCCc1ccccc1)NOC(=O)OCc1ccccc1` the inhibition (Bacteria [1]) was over 90%, the IC50 [2] was 1010 nM and the Ki [3] was 2500 nM. The Ki [4] was 550 nM, the inhibition (Bacteria [5]) was “Dose-Dependent Effect” and the inhibition (Bacteria [6]) was “Dose-Dependent Effect”. For the same molecule, the inhibition (Bacteria [7]) was “Dose-Dependent Effect”, the inhibition (Bacteria [8]) was “Tde” and the inhibition (Bacteria [9]) was “Dose-Dependent Effect”. For the same molecule, the inhibition (Bacteria [10]) was “Dose-Dependent Effect”, the Activity [11] was under 10% and the inhibition [12] was “Active”. The inhibition (Bacteria [13]) was “Active”, the inhibition (Bacteria [14]) was “Active” and the Tm (Bacteria [15]) was 51.4 °C. It also gave a Tm (Bacteria [16]) of 53.9 °C, an MIC (Escherichia coli [17]) of 0.5 µg/mL and an MIC (Escherichia coli [18]) of 128 µg/mL. For the same molecule, the MIC (Escherichia coli [19]) was 64 µg/mL, the “fold change (FC)” value (Escherichia coli [20]) was 2 and the “fold change (FC)” value (Escherichia coli [21]) was 2. The “fold change (FC)” value (Escherichia coli [22]) was 2, the Activity (Escherichia coli [23]) was “Active” and the Activity (Escherichia coli [24]) was “Active”. The Activity (Escherichia coli [25]) was “inactive”, the Activity (Escherichia coli [26]) was “inactive” and the Activity (Escherichia coli [27]) was “Active”. For the same molecule, the Activity (Escherichia coli [28]) was “Active”, the Activity (Escherichia coli [29]) was “Active” and the Activity (Escherichia coli [30]) was “Active”. For the same molecule, the Activity (Escherichia coli [31]) was “inactive”.
